{"source": "patent US12551576B2", "about": "“Chemiluminescent probes” (The General Hospital Corporation, priority 2020, dated 2026)", "key": {"Aβ40 aggregates [1]": {"molecular_target": "T1, Aβ40 aggregates (Homo sapiens, UniProt P05067)", "assay": "In vitro chemiluminescence study with Aβ aggregates in PBS", "assay_type": "binding"}, "[2]": {"system": "beta-sheet misfoldons in patient serum", "assay": "Chemiluminescence detection of beta-sheet misfoldons in disease serum", "design": "species or system human", "description": "Chemiluminescence detection beta-sheet misfoldons in disease serum by ADLumin-1: serum of AD patient contains abundant beta-sheet misfoldons that can be detected by ADLumin-1. ADLumin-1 (2.5 μM) was added to 100 μl non-diluted serum of AD patients, and serum from health control (HC) was used as the control. […] This is remarkable, since this difference is phenomenally large and is very useful for blood quality evaluation.\nMisfolded beta-sheets are associated with various diseases, including brain disorders (e.g., neurodegenerative disorders) and periphery diseases, particularly chronic diseases. The patient sera of chronic diseases also contains abundant beta-sheet misfoldons. In this regard, patient sera of multiple sclerosis, diabetes, rheumatoid arthritis and pulmonary fibrosis patients was used in this example."}, "[3]": {"system": "beta-sheet misfoldons in mixed HC and disease serum", "design": "species or system human"}, "prion": {"system": "prion", "assay_type": "binding"}, "human serum albumin": {"molecular_target": "human serum albumin (Homo sapiens, UniProt P02768)", "sequence (P02768 25-609)": "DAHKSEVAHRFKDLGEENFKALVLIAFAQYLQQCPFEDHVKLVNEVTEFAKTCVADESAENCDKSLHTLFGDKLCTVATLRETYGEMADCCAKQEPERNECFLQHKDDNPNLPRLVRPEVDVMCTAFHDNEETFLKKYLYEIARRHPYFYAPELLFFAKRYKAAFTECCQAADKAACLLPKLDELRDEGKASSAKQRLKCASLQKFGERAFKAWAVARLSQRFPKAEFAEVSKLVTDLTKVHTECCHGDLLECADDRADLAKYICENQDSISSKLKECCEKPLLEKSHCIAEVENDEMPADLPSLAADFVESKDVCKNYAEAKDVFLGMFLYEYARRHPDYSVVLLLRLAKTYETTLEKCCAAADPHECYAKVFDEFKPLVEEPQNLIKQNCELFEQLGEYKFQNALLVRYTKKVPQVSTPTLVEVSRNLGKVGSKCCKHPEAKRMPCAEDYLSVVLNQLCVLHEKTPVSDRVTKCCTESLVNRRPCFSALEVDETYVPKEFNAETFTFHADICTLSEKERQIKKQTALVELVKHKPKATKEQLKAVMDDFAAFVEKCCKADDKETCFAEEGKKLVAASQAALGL", "assay": "Aβ aggregates incubated with human serum albumin"}, "Aβ40 aggregates [4]": {"molecular_target": "T1, Aβ40 aggregates", "assay": "In vitro fluorescence spectral testing of ADLumin-1 with Aβ40 aggregates", "assay_type": "binding"}, "Immunoglobulin G (IgG)": {"system": "Immunoglobulin G (IgG)", "assay": "Aβ aggregates incubated with IgG"}, "[5]": {"molecular_target": "Aβ aggregates in mouse brain homogenate (Homo sapiens, UniProt P05067)", "sequence (P05067 672-711 limits assumed)": "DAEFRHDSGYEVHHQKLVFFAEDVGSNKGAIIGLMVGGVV", "assay": "In vitro chemiluminescence study in brain homogenate", "assay_type": "binding"}, "[6]": {"assay": "Fluorescence and chemiluminescence spectral studies", "assay_type": "physicochemical", "description": "Materials and Methods: reagents used for the synthesis were purchased from Sigma-Aldrich and used without further purification. Column chromatography was performed on a glass column slurry-packed with silica gel (60 Å, […]; SiliCycle Inc.). Recombinant Aβ peptide (1-40/42) were purchased from rPeptide (A-1163-1). Aβ aggregates for in vitro studies were generated by slow stirring of Aβ40 in PBS buffer for 3 days at room temperature. ^1H and ^13C NMR spectra were recorded at 500 MHz and 125 MHz on Bruker spectrometers in CDCl3, CD3OD or DMSO-d6 solutions at room temperature with tetramethylsilane (TMS, δ=0) as an internal standard. Liquid chromatography-mass spectrometry (LC-MS) was performed using an Agilent 1200 Series apparatus with an LC/MSD trap and Daly conversion dynode detector with UV detection at 254 nm. Fluorescence measurements were carried out using an F-7100 fluorescence spectrophotometer (Hitachi). Transgenic female 5×FAD mice and age-matched wild-type female mice were purchased from Jackson Laboratory. All animal experiments were approved by the Institutional Animal Use and Care Committee at Massachusetts General Hospital. The IVIS Spectrum animal imaging system (PerkinElmer) was used for in vitro and in vivo imaging.\nFluorescence spectral studies: Normally, all chemiluminescent molecules are fluorescent. The excitation and emission spectra of ADLumin-X were recorded and the emission peak of ADLumin-1 was around 590 nm (FIG. 1D) in DMSO, which is considerably longer than most of the commercially available chemiluminescence probes. The emission of ADLumin-2 is longer than that of ADLumin-1, due to its additional double-bond. (the emission peak of ADLumin-2 was 20 nm longer). […] Based on this fact, ADLumin-1 was used throughout this example, due to its high QY.\nChemiluminescence spectral studies: ADLumin-1 is stable in PBS buffer and organic solvents, including acetonitrile, dichloromethane and methanol. […] Without being bound by any theory, it is believed that the luminescence was due to the auto-oxidation of ADLumin-1. Although the mechanism of chemiluminescence of IPO derivatives has been studied, the mechanism of auto-oxidation has been rarely explored. In the course of the experiments, ADLumin-1 emitted very strong luminescence in pure DMSO (FIG. 2b). Unexpectedly, if the ADLumin-1 DMSO solution was stirred, even stronger luminescence can be detected (3.4-fold in FIG. 2b). Without being bound by any theory, it is believed that the luminescence was related to oxygen levels in DMSO. […] However, the increasing-fold decreased with cycles (FIG. 2c). […] Since no ROS were added into the DMSO solution, it is reasonable to infer that the auto-oxidation of ADLumin-1 was oxygen-level dependent. It is worthy to note that green fluorescent protein and luciferase/luciferin also dependent on oxygen for their proper imaging functions."}, "PA-K2": {"system": "PA-K2", "assay": "Chemiluminescence detection of model beta-sheet aggregates (PA-K2)", "assay_type": "binding"}, "Aβ40 aggregates [7]": {"molecular_target": "T1, Aβ40 aggregates", "assay": "In vivo mimic demonstration of DAS-CRET", "conditions": "FIG. 8E, subcutaneous injection in nude mouse", "description": "After solutions were prepared, one female 8-month old nude mouse was anesthetized, and the left hind limb was subcutaneously injected with the first solution and the right hind limbs was subcutaneously injected with the second solution. The mouse was then placed into the IVIS imaging chamber and images were captured from the dorsal side and from the ventral side with the open filter (500 nm-840 nm) and specific filters."}, "PA-E2": {"system": "PA-E2", "assay": "Chemiluminescence detection of model aggregates (PA-E2 vs PA-E)", "assay_type": "binding"}, "PA-K": {"system": "PA-K", "assay": "Chemiluminescence detection of model aggregates (PA-K)", "assay_type": "binding", "conditions": "ADLumin-1 2.5 μM, PA-K 0.5 mg/ml"}, "amylin": {"molecular_target": "amylin (Homo sapiens, UniProt P10997)", "sequence (P10997 34-70 limits assumed)": "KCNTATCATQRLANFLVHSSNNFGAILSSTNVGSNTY", "assay_type": "binding"}, "[8]": {"molecular_target": "Aβ40 aggregates, monomers and oligomers in human serum (Homo sapiens, UniProt P05067)", "sequence (P05067 672-711 limits assumed)": "as the sequence (P05067 672-711 limits assumed) above", "assay": "Chemiluminescence of Aβ40 species incubated with non-diluted human serum"}, "[9]": {"conditions": "chemiluminescence / bioluminescence spectra"}}, "note": "Where “and” joins values, the source holds several entries; their conditions need not be identical. Equal values may be shown once. Read-outs that look alike come from different tables or passages of the source."}
{"smiles": "Cc1nc2c[nH]c(/C=C/C=C/c3ccc(N(C)C)cc3)cn-2c1=O", "note": "[ADLumin-1, 6-((1E,3E)-4-(4-(dimethylamino)phenyl)buta-1,3-dien-1-yl)-2-methylimidazo[1,2-a]pyrazin-3(7H)-one]", "values": [{"measurement": "chemiluminescence signal, wells with Aβs vs wells without Aβs", "setting": "Aβ40 aggregates [1]; IVIS imaging system, open filter, 96-well plate", "result": 104, "unit": "fold"}, {"measurement": "chemiluminescence intensity increase upon incubation with Aβs", "setting": "Aβ40 aggregates [1]; PBS buffer with 2% DMSO, at 540 nm", "result": "about 216 fold"}, {"measurement": "amplification of chemiluminescence intensity upon mixing with Aβs in vitro", "setting": "Aβ40 aggregates [1]; in vitro, summary statement", "result": "216 fold and > 200 fold"}, {"measurement": "chemiluminescence signal AD serum vs HC serum", "setting": "[2]; ADLumin-1 2.5 μM, 100 μl non-diluted serum", "result": "> 50 fold and 52.2 fold"}, {"measurement": "chemiluminescence signal disease serum vs HC control", "setting": "[2]; diabetes serum", "result": 44.7, "unit": "fold"}, {"measurement": "chemiluminescence signal disease serum vs HC control", "setting": "[2]; multiple sclerosis serum", "result": 34.9, "unit": "fold"}, {"measurement": "chemiluminescence signal disease serum vs HC control", "setting": "[2]; pulmonary fibrosis serum", "result": 16.6, "unit": "fold"}, {"measurement": "chemiluminescence signal disease serum vs HC control", "setting": "[2]; rheumatoid arthritis serum", "result": 29.3, "unit": "fold"}, {"measurement": "total signal of mixed group vs sum of 90% HC serum and 10% AD serum", "setting": "[3]", "result": 1.66, "unit": "fold"}, {"measurement": "signal mixture of HC serum and disease serum vs HC serum", "setting": "[3]; 10% diabetes serum", "result": 3.34, "unit": "fold"}, {"measurement": "signal mixture of HC serum and disease serum vs HC serum", "setting": "[3]; 10% multiple sclerosis serum", "result": 7.24, "unit": "fold"}, {"measurement": "signal mixture of HC serum and disease serum vs HC serum", "setting": "[3]; 10% pulmonary fibrosis serum", "result": 4.60, "unit": "fold"}, {"measurement": "signal mixture of HC serum and disease serum vs HC serum", "setting": "[3]; 10% rheumatoid arthritis serum", "result": 6.64, "unit": "fold"}, {"measurement": "chemiluminescence signal mixed group vs 100% HC serum", "setting": "[3]; 90% HC serum and 10% AD serum", "result": 7.75, "unit": "fold"}, {"measurement": "largest chemiluminescence difference with aggregates", "setting": "prion", "result": 2.22, "unit": "fold"}, {"measurement": "signal decay T½", "setting": "prion", "result": 11.36, "unit": "min"}, {"measurement": "difference between Aβ/albumin and albumin only group", "setting": "human serum albumin", "result": "no significant differences"}, {"measurement": "fluorescence intensity increasing upon mixing with Aβs", "setting": "Aβ40 aggregates [4]", "result": 100, "unit": "fold"}, {"measurement": "shift of fluorescence emission of the probe with Aβs", "setting": "Aβ40 aggregates [4]", "result": "significant blue-shift"}, {"measurement": "chemiluminescence intensity IgG/Aβ group vs IgG group", "setting": "Immunoglobulin G (IgG); incubation 30 minutes", "result": 1.81, "unit": "fold"}, {"measurement": "chemiluminescence intensity IgG/Aβ group vs IgG group", "setting": "Immunoglobulin G (IgG); incubation 60 minutes", "result": 1.71, "unit": "fold"}, {"measurement": "chemiluminescence intensity IgG/Aβ group vs IgG group", "setting": "Immunoglobulin G (IgG); incubation 120 minutes", "result": 2.55, "unit": "fold"}, {"measurement": "Aβ concentration range with linear intensity increase", "setting": "[5]", "result": "0 to 12.5", "unit": "µM"}, {"measurement": "chemiluminescence signal, Aβ group vs no Aβ", "setting": "[5]; Aβ aggregates 12.5 μM", "result": "about 11.6 fold"}, {"measurement": "stability", "setting": "[6]; PBS buffer and organic solvents, including acetonitrile, dichloromethane and methanol", "result": "stable"}, {"measurement": "emission peak (FWHM comparison)", "setting": "[6]; [9]", "result": 540, "unit": "nm"}, {"measurement": "full width at half-maximum (FWHM)", "setting": "[6]; [9]", "result": 94, "unit": "nm"}, {"measurement": "fluorescence emission peak", "setting": "[6]; in DMSO", "result": "around 590 nm"}, {"measurement": "chemiluminescence emission peak", "setting": "[6]; in the presence of 10% DMSO", "result": "around 540 nm"}, {"measurement": "intensity ratio of PA-K2/PA-K", "setting": "PA-K2", "result": "about 47.5 fold"}, {"measurement": "low limit of detection (LOD) lower than that of ThT", "setting": "PA-K2", "result": 100, "unit": "fold"}, {"measurement": "chemiluminescence signal increase vs ADLumin-1 only in PBS", "setting": "PA-K2; ADLumin-1 2.5 μM, PA-K2 0.5 mg/ml, PBS", "result": 101, "unit": "fold"}, {"measurement": "peptide concentration range of concentration dependent intensity", "setting": "PA-K2; PA-K2 and PA-E2", "result": "0.001 to 1.0", "unit": "mg/mL"}, {"measurement": "peptide concentration at which PA-K and PA-K2 are differentiated", "setting": "PA-K2; chemiluminescence", "result": 0.001, "unit": "mg/mL"}, {"measurement": "ADLumin-1 concentration range of linear response", "setting": "PA-K2; with 0.5 mg/ml PA-K2", "result": "0.001 to 0.1", "unit": "mg/mL"}, {"measurement": "SNR (ROI1/ROI2)", "setting": "Aβ40 aggregates [7]", "result": "> 2000 and 2189"}, {"measurement": "chemiluminescence intensity PA-E2 group vs PA-E group", "setting": "PA-E2", "result": 4.39, "unit": "fold"}, {"measurement": "chemiluminescence signal increase vs ADLumin-1 only in PBS", "setting": "PA-K", "result": 2.49, "unit": "fold"}, {"measurement": "largest chemiluminescence difference with aggregates", "setting": "amylin", "result": 4.20, "unit": "fold"}, {"measurement": "chemiluminescence ratio of the Aβ group and the control group", "setting": "[8]; Aβ40 aggregate 2.5 μM", "result": "about 3.43 fold"}, {"measurement": "chemiluminescence intensity Aβ group vs control group", "setting": "[8]; Aβ monomers", "result": 1.96, "unit": "fold"}, {"measurement": "chemiluminescence intensity Aβ group vs control group", "setting": "[8]; Aβ oligomers", "result": 1.71, "unit": "fold"}]}
